Counter-ions that a name gives are not always drawn.

The target of one experiment is T1, recombinant human baculovirus-expressed GST-tagged FASN (Homo sapiens, UniProt P49327).
T1 construct: GST
T1 sequence (P49327 whole entry): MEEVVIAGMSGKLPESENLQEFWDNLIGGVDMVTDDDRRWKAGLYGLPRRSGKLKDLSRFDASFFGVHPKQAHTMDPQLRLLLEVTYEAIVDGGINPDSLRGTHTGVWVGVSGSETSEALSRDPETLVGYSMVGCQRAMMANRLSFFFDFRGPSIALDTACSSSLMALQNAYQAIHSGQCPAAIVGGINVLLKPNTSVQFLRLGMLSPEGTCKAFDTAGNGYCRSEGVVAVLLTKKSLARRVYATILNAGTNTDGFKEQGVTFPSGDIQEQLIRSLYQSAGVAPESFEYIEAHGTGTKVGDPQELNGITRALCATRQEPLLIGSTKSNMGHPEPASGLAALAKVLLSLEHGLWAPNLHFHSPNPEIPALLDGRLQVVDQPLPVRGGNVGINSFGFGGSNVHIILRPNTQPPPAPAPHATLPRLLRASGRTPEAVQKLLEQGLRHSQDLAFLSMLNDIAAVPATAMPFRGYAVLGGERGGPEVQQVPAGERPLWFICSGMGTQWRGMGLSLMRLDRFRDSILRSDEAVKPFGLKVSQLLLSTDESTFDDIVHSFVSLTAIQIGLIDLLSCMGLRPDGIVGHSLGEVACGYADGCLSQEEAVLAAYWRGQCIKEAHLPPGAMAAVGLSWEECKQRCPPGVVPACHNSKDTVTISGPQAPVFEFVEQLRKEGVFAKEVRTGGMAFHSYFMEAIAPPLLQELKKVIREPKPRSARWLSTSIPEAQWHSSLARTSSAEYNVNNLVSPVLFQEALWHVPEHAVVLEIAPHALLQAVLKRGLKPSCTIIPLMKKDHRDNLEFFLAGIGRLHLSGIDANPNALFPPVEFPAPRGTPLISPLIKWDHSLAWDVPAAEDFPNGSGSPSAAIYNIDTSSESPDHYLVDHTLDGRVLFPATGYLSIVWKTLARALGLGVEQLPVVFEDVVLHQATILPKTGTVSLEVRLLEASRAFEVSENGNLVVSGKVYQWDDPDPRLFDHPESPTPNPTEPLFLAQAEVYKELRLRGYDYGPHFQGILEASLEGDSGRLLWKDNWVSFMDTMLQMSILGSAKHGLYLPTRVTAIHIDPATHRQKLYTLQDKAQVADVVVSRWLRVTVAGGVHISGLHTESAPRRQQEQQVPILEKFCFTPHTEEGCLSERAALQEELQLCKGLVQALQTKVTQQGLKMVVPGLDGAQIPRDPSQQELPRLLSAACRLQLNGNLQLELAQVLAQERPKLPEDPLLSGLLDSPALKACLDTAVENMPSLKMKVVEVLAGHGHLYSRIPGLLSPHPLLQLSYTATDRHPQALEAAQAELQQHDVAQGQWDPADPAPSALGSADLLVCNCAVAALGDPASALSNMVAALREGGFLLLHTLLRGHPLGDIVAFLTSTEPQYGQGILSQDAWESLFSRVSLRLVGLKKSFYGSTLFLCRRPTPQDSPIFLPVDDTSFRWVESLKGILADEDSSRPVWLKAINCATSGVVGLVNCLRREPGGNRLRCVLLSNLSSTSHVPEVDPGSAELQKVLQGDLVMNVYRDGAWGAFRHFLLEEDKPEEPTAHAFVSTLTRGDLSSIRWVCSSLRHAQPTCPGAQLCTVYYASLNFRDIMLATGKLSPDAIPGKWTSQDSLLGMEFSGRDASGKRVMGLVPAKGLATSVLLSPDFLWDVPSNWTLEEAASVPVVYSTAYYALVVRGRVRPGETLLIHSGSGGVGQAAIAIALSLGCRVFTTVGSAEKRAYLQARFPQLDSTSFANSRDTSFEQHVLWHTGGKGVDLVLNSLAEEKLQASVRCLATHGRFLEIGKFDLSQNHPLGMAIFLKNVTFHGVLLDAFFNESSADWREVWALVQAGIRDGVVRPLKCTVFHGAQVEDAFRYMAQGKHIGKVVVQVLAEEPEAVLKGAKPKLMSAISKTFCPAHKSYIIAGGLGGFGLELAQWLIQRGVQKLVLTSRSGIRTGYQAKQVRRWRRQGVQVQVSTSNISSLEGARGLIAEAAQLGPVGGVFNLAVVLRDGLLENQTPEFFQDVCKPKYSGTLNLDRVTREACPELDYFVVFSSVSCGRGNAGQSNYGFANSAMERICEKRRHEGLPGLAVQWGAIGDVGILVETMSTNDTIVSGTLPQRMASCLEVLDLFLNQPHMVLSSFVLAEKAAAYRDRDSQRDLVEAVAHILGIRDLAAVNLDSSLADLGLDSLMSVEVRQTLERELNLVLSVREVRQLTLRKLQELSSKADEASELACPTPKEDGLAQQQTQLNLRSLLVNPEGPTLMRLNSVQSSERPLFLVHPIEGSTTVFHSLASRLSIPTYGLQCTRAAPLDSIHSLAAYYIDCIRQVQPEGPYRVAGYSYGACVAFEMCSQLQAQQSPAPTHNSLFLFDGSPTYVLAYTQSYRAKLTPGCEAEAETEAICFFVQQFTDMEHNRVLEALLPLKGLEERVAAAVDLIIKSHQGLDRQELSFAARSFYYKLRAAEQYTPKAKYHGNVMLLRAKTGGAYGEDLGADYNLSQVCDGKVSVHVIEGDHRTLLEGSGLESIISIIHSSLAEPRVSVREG
Kind of experiment: FASN enzyme activity assay, fluorescence-based detection of CoA with CPM. The conditions noted are these: 5 nM FASN, 150 μM NADPH, 10 μM acetyl-CoA, 25 μM malonyl-CoA, 90 minutes incubation; read-out: IC50 data for Additional Compounds of Formulae I-V(a): Activity. It is filed as biochemical. The method in brief:
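CoA product reacted with thiol-reactive CPM (diluted to 50 μM in 70% ethanol), read at 390/530 nm after 30 min. Preceding reaction: 90 min, 5 nM recombinant GST-FASN, 150 μM NADPH, 10 μM acetyl-CoA, 25 μM malonyl-CoA, pH 7.5 HEPES, 0.5% DMSO. IC50s fitted by nonlinear sigmoidal regression.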
For the compound `Cc1c(-c2ccc(OC3CCN(C(=O)NOC(C)C)CC3)cc2)ccc2cccnc12` [Example 543, N-Isopropoxy-4-[4-(8-methyl-7-quinolyl)phenoxy]piperidine-1-carboxamide], the IC50 lay within 1 to 10 µM. In the case of `Cc1c(-c2ccc(OC3CCN(C(=O)[C@@H](C)N)CC3)cc2)ccc2cccnc12` [Example 610, (2R)-2-Amino-1-[4-[4-(8-methyl-7-quinolyl)phenoxy]-1-piperidyl]propan-1-one, 2HCl], the IC50 is 1 to 10 µM. Turning to `Cc1c(-c2ccc(OC3CCN(C(=O)NOC(C)C)CC3)cc2)ccc2nccn12` [Example 600, N-Isopropoxy-4-[4-(5-methylimidazo[1,2-a]pyridin-6-yl)phenoxy]piperidine-1-carboxamide], the IC50 fell in the range of 0.1 to 0.999 µM.

For the compound `Cc1c(-c2ccc(OC3CCN(C(=O)[C@H]4CCCN4)CC3)cc2)ccc2cccnc12` [Example 620, [4-[4-(8-Methyl-7-quinolyl)phenoxy]-1-piperidyl]-[(2R)-pyrrolidin-2-yl]methanone], the IC50 was 1 to 10 µM. For `CCNC(=O)N1CCC(Oc2ccc(-c3ccc4nccn4c3C)cc2)CC1` [Example 592, N-Ethyl-4-[4-(5-methylimidazo[1,2-a]pyridin-6-yl)phenoxy]piperidine-1-carboxamide], the IC50 was in the range of 0.001 to 0.099 µM. Still for that read-out and setting: in the case of `Cc1c(-c2ccc(OC3CCN(C(=O)OCC4CC4)CC3)cc2)ccc2cccnc12` [Example 553, Cyclopropylmethyl 4-[4-(8-methyl-7-quinolyl)phenoxy]piperidine-1-carboxylate HCl] it was 1 to 10 µM.

Still in this experiment, the particulars now being: 5 nM FASN, 150 μM NADPH, 10 μM acetyl-CoA, 25 μM malonyl-CoA, 90 minutes incubation; read-out: IC50 data for Compounds of Formulae I-V/V(a): Activity.
As for `CCC(=O)N1CCC(Oc2ccc(-c3ccc4cccnc4c3C)cc2)CC1` [Example 36], the IC50 lay in the range of 0.001 to 0.099 µM.

Regarding `CCC(=O)N1CCC(Oc2ccc(-c3ccc4nc(C)c(C)n4c3)cc2)CC1` [Example 290, 1-{4-[4-(2,3-Dimethylimidazo[1,2-a]pyridin-6-yl)-phenoxy]-piperidin-1-yl}-propan-1-one], the IC50 fell in the range of 1 to 10 µM. Take `O=C([C@H]1CCCO1)N1CCC(Oc2ccc(-c3ccc4cccnc4c3Cl)cc2)CC1` [Example 260, {4-[4-(8-Chloro-quinolin-7-yl)-phenoxy]-piperidin-1-yl}-(R)-tetrahydro-furan-2-yl-methanone, TFA salt]: the IC50 was in the range of 0.001 to 0.099 µM. `Cc1nccc2c(C)c(-c3ccc(OC4CCN(C(=O)[C@H]5CCCO5)CC4)cc3)ccc12` [Example 474, [4-[4-(1,5-Dimethyl-6-isoquinolyl)phenoxy]-1-piperidyl]-[(2R)-tetrahydrofuran-2-yl]methanone, HCl]: the IC50 lay within 0.001 to 0.099 µM. For `Cc1c(-c2ccc(OC3CCN(C(=O)N4CCCO4)CC3)cc2)cnc2ccccc12` [Example 78, Isoxazolidin-2-yl-{4-[4-(4-methylquinolin-3-yl)-phenoxy]-piperidin-1-yl}-methanone], the IC50 is 0.001 to 0.099 µM. Take `CCC(=O)N1CCC(Oc2ccc(-c3ccc4c(Cl)ccnc4c3)cc2)CC1` [Example 259, 1-{4-[4-(4-Chloroquinolin-7-yl)-phenoxy]-piperidin-1-yl}-propan-1-one, TFA salt]: the IC50 fell in the range of 0.1 to 0.999 µM.

Regarding `COc1cccc2ncc(-c3ccc(OC4CCN(C(=O)[C@H]5CCCO5)CC4)cc3)cc12` [Example 465, {4-[4-(5-Methoxyquinolin-3-yl)-phenoxy]-piperidin-1-yl}-(R)-tetrahydro-furan-2-yl-methanone, HCl], the IC50 is 0.1 to 0.999 µM. Consider `O=C(C1CCC1)N1CCC(Oc2ccc(-c3ccc(Nc4ccccc4)nc3)cc2)CC1` [Example 394, Cyclobutyl-{4-[4-(6-phenylaminopyridin-3-yl)-phenoxy]-piperidin-1-yl}-methanone, TFA salt], for which the IC50 was 1 to 10 µM.

For the compound `CCC(=O)N1CCC(Oc2ccc(-c3cnc(OC)c(OC)c3)cc2)CC1` [Example 498, 1-{4-[4-(5,6-Dimethoxypyridin-3-yl)-phenoxy]-piperidin-1-yl}-propan-1-one], the IC50 was in the range of 1 to 10 µM. Same read-out and setting: then `COC(=O)N1CCC(Oc2ccc(-c3cnc4ccccc4c3)c(C)c2)CC1` [Example 208, 4-(3-Methyl-4-quinolin-3-yl-phenoxy)-piperidine-1-carboxylic acid methyl ester], with 1 to 10 µM; and `O=C(C1CC1)N1CCC(Oc2ccc(-c3cc4ccccc4nc3Cl)cc2)CC1` [Example 17, {4-[4-(2-Chloroquinolin-3-yl)-phenoxy]-piperidin-1-yl}-cyclopropyl-methanone], with 1 to 10 µM; and `O=C([C@H]1CCCO1)N1CCC(Oc2ccc(-c3ccc4cnc(C5CC5)cc4c3)cc2)CC1` [Example 480, {4-[4-(3-Cyclopropylisoquinolin-6-yl)-phenoxy]-piperidin-1-yl}-(R)-tetra-hy drofuran-2-yl-methanone], with 0.001 to 0.099 µM. Same read-out and setting: then `Cc1c(-c2ccc(OC3CCN(C(=O)[C@H]4CCCO4)CC3)cc2)ccc2cccnc12` [Example 69, {4-[4-(8-Methylquinolin-7-yl)-phenoxy]-piperidin-1-yl}-(R)-tetrahydro-furan-2-yl-methanone], with 0.001 to 0.099 µM; and `Cc1c(-c2ccc(OC3CCN(C(=O)C(F)(F)F)CC3)cc2)ccc2cccnc12` [Example 357, 2,2,2-Trifluoro-1-{4-[4-(8-methyl-quinolin-7-yl)-phenoxy]-piperidin-1-yl}-ethanone], with 1 to 10 µM; and `CCC(=O)N1CCC(Oc2ccc(-c3cnc4ccccc4c3)nc2)CC1` [Example 140, 1-[4-(6-Quinolin-3-yl-pyridin-3-yloxy)-piperidin-1-yl]-propan-1-one, 2HCl], with 1 to 10 µM. For `O=C(C1CC1)N1CCC(Oc2ccc(-c3ccc4ccccc4n3)cc2)CC1` [Example 39, Cyclopropyl-[4-(4-quinolin-2-yl-phenoxy)-piperidin-1-yl]-methanone], the IC50 fell in the range of 0.1 to 0.999 µM.

With `C[C@@H]1C[C@H](C(=O)N2CCC(Oc3ccc(-c4cnc5ccccc5c4)cc3)CC2)O[C@@H]1C` [Example 156, ((2R,4R,5R)/(2S,4S,5 S)-4,5-Dimethyl-tetrahydrofuran-2-yl)-[4-(4-quinolin-3-yl-phenoxy)-piperidin-1-yl]-methanone, HCL], the IC50 was in the range of 0.1 to 0.999 µM. With `CCC(=O)N1CCC(Oc2ccc(-c3ccnc(Oc4ccccc4)c3)cc2)CC1` [Example 409, 1-{4-[4-(2-Phenoxypyridin-4-yl)-phenoxy]-piperidin-1-yl}-propan-1-one], the IC50 lay within 1 to 10 µM. For the compound `O=C(C1CCC1)N1CCC(Oc2ccc(-c3cncc(Oc4ccccc4)c3)cc2)CC1` [Example 400, Cyclobutyl-{4-[4-(5-phenoxypyridin-3-yl)-phenoxy]-piperidin-1-yl}-methanone, HCl], the IC50 lay in the range of 1 to 10 µM.

Consider `CCC(=O)N1CCC(Oc2ccc(-c3ccc4cc(C)cnc4c3)cc2)CC1` [Example 280, 1-{4-[4-(3-Methylquinolin-7-yl)-phenoxy]-piperidin-1-yl}-propan-1-one], for which the IC50 lay within 0.001 to 0.099 µM.

For the compound `CCC(=O)N1CCC(Oc2ccc(-c3ccc(N4CCOCC4)nc3)cc2)CC1` [Example 386, 1-{4-[4-(6-Morpholin-4-yl-pyridin-3-yl)-phenoxy]-piperidin-1-yl}-propan-1-one], the IC50 was 1 to 10 µM.

For the compound `CC(=O)C(=O)N1CCC(Oc2ccc(-c3cnc4ccccc4c3C)cc2)CC1` [Example 72, 1-{4-[4-(4-Methylquinolin-3-yl)-phenoxy]-piperidin-1-yl}-propane-1,2-dione], the IC50 fell in the range of 0.001 to 0.099 µM.

Values taken from patent US9902696B2, “1,4-substituted piperidine derivatives” (Cephalon, Inc., priority 2015, dated 2018).
